Data on three substances can be found in patent US20090019557A1, “FGF2-RELATED METHODS FOR DIAGNOSING AND TREATING DEPRESSION” (priority 2005, published 2009).

For experiment [1], the system named is rats. Description: Forced swim test (FST) after microinjection. To be noted: versus controls. Type of experiment: in vivo. The source says: (§1) This is indicative of less depression-like behavior in FGF2 animals.
(§2) Again, this is an index of less depression-like behavior. This is also in the same direction as the FGF2 data, consistent with the fact that both FGF2 and NCAM interact with the FGF receptor.
(§3) These observations are nevertheless consistent with the conclusions drawn from the microinjection studies above.

Experiment [2] has as its system rats. Kind of experiment: Elevated plus maze (EPM) after acute microinjection. It is filed as in vivo. Conditions: versus controls.
Source text: as §1, §2, §3

For experiment [3], the system named is FGFR2 and FGFR3 exon IIIc:IIIb splice variants. Kind of experiment: Real time RT-PCR of exon IIIc:IIIb splice variant ratio in frontal cortex, chronic unpredictable stress. To be noted: 5 ng/g i.p. every 48 hours for three weeks. It is filed as in vivo, rats. Here is the method:
Animals. Twenty-four male Sprague-Dawley rats weighing 220-250 g were ordered from Charles River (Wilmington, Mass.) and remained undisturbed for one week to acclimatize to housing conditions. The animals were housed in pairs on a 12 h light-dark cycle (lights on 6:00 A.M.) with food and water available ad libitum. All experiments were conducted in accordance with the NIH Guide for the Care and Use of Animals and the University Committee on the Use and Care of Animals.
FGF2 injection treatments and chronic unpredictable stress (CUS) conditions. […]
Total RNA extraction. […] Using the Bioanalyzer's concentration readings, the samples were normalized to 25 ng/μL of total RNA per subject and stored at −80° C.
cDNA synthesis. cDNA was synthesized using the iScript cDNA Synthesis Kit (Bio-Rad, Hercules, Calif.). […] The double-stranded cDNA solutions were then analyzed for quality and concentration using Invitrogen's Quant-iT PicoGreen dsDNA kit. […] The fluorescently labeled samples were analyzed with a 1420 Victor^2 Multilabel Counter (EG&G Wallac, Wellesley, Mass.) using the basic Fluorescein protocol. […]
Real time RT-PCR primer design. […] Exon sequences were analyzed using NCBI's nucleotide and protein BLAST and were matched with their corresponding protein products within the receptor structures (FIG. 11). […]

The next experiment concerns Sprague-Dawley rats. Description: Morris water maze learning and memory test in adults after early postnatal FGF2. It is filed as in vivo. To be noted: 20 ng/g s.c. the day after birth, tested as adults. Here is the method:
(§4) Methods. Sprague-Dawley rats were injected with either vehicle or FGF2 (20 ng/g, s.c.) the day after birth and sacrificed after Morris water maze testing as adults. We assessed changes in gene expression using both a candidate approach and a gene discovery approach with laser-capture microdissection of the dentate gyrus followed by microarray analyses.

In experiment [4] the test system is GAP-43, Rgs4, trkb, CCK, SST, Vgf, NCAM expression. Kind of experiment: Hippocampal (dentate gyrus) gene expression in adult rats after early postnatal FGF2. Type of experiment: in vivo. To be noted: FGF2 20 ng/g s.c. the day after birth. Here is the method:
as §4
Results. […] Several genes associated with neural plasticity were also found altered in the adult rats, as shown by histochemical and RNA expression assays. For example, expression of GAP-43, Rgs4, trkb, CCK, SST, and Vgf was increased, while expression of NCAM was decreased.

The test system of experiment [5] is rats. Description: Elevated plus-maze (EPM) and light-dark (LD) anxiety tests after chronic FGF2. It is filed as in vivo. Conditions: 5 ng/g i.p. every 48 hours for 3 weeks. How it is done:
Anxiety disorders have a high comorbidity with other neuropsychiatric disorders including Major Depression (MD). […] Rats were placed into “high anxiety” (LR) or “low anxiety” (HR) groups based on their behavior in a variety of motor and behavioral tests. Both groups of animals were administered either FGF2 (5 ng/g) or vehicle by intraperitoneal injection every 48 hours for 3 weeks. One day after the last FGF2 injection, all animals were tested in the elevated plus-maze (EPM) and light-dark (LD) anxiety test.
The apparatus for the EPM test is constructed of black Plexiglass with […] (70 cm from the floor, 45 cm long, and 12 cm wide). Illumination is provided by a 40-watt desk lamp facing a wall and placed behind one of the closed arms. The scientists put the animal inside the system. Animals that are less anxious spend more time in the open arms whereas animals that are more anxious spend less time in the open arms.
The LD test is conducted in a 30×60×30-cm Plexiglas shuttle box with a translucent cover. Each box is divided into two equal-sized compartments by a wall with a 12 cm-wide open door. One compartment is painted white and brightly illuminated, and the other is painted black with very dim light. The time each rat spends in each compartment is monitored by rows of five photocells located 2.5 cm above the grid floor of each compartment. […]

On to EVYVVAENQQGKSKA [NCAM], for which, in the experiment on rats [1], the “immobility in FST” value is listed as “less immobility”. For the same substance, in the experiment with rats [2], the “time in the center quadrant of EPM” value is listed as “significantly less time”, the “time in the closed arms of EPM” value was “more time (although not significantly more time)” and the “time in the open arms of EPM” value is listed as “less time”.

With “FGF2: human recombinant FGF2 (Sigma); ligand of the FGF receptor”, in the experiment with rats [1], the “immobility in FST” value is “less immobility” and the “swimming in FST” value is listed as “more swimming”. In experiment [3], the “effect on magnitude of IIIc:IIIb ratio changes caused by stress” value is “nor did it significantly affect”. The “effect on exon IIIc:IIIb ratio” value in experiment [3] (NS or S group, P>0.1) is “did not alter the IIIc:IIIb ratio significantly”. Besides, the “time on average to find a hidden platform in Morris Water maze test” value with Sprague-Dawley rats amounted to 20 s. Moreover, the “performance in learning and memory tests” value in the experiment on Sprague-Dawley rats (versus vehicle) is “significantly better”. Besides, in the experiment with rats [2], the “time in the closed arms of EPM” value is recorded as “significantly more time” and the “time in the open arms of EPM” value was “less time”. In experiment [4], the “expression of CCK” value is “increased”, the “expression of NCAM” value is on record as “decreased”, the “expression of Rgs4” value is listed as “increased” and the “expression of SST” value is given as “increased”. Also, in experiment [4], the “expression of Vgf” value is listed as “increased” and the expression of trkb entry is reported as “increased”. Moreover, the “expression of GAP-43” value in experiment [4] (histochemical and RNA expression assays) is “increased”. Also, the “anxiety versus vehicle animals” value in the experiment on rats [5] (tested one day after last injection) was “less anxious”. Also, the “anxiety-reducing effect in innately more anxious (LR) rats” value in the experiment on rats [5] (LR versus HR rats) is recorded as “clearly more pronounced”.

Turning to “HFKDPKRLY [FGF system peptide inhibitor]”, in the experiment with rats [1], the “climbing in FST” value was “significantly less climbing”, the “immobility in FST” value is “more immobility” and the “swimming in FST” value was “less swimming”. In the experiment with rats [2], the “time in the center quadrant of EPM” value is reported as “significantly more time”, the “time in the closed arms of EPM” value is “less time” and the “time in the open arms of EPM” value is recorded as “equal time”.
